Data on eleven compounds can be found in patent US20150368209A1, “4-Pyrimidinylamino-benzenesulfonamide derivatives and their use for the inhibition of polo-like kinase 1 (PLK1) for the treatment of cancer and their use for the treatment of bacterial infections” (VICHEM CHEMIE KUTATÓ KFT., priority 2013, published 2015).

A word on the pIC50: it is the negative decadic logarithm of the IC50, by convention in mol/L. Read a low pIC50 as a high IC50.

In one test the test system is M. tuberculosis H37Rv. Briefly: Resazurin reduction microtiter assay (REMA), growth inhibition and MIC determination. Format: cell-based. Conditions: Mycobacterium tuberculosis, 168 h, 7 days at 37° C.; for inhibition at 20 µM: at 20 uM compound, read-out: H37Rv inh % at 20 uM; for MIC: two-fold serial dilution from 100 to 0.16 μM, read-out: H37Rv MIC90. In general terms: The colour change of resazurin is a common sign of viable cells or microbes.

The target in the next test is T1, human PLK1 kinase domain (Homo sapiens, UniProt P53350).
T1 construct: Each reaction consisted of 30 nM enzyme PLK1 kinase domain
T1 sequence (P53350 53-305 limits assumed): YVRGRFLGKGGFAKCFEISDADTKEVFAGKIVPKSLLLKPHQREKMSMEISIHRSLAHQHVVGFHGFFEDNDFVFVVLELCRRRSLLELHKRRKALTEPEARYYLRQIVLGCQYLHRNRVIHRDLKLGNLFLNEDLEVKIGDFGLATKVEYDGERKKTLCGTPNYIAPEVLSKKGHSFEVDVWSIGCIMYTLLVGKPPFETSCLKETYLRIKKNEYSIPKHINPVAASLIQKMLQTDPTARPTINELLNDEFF
Briefly: In vitro PLK1 assay (IMAP fluorescence polarization kinase assay). It is filed as biochemical. To be noted: for pIC50: 30 nM PLK1 kinase domain, 16 μM ATP (=Kmapp), 90 min at room temperature; for inhibition at 10 µM: at 10 uM compound. How it is done:
The activity of the compounds described in the present invention was determined using a commercially available IMAP Screening Express Assay Kit (Molecular devices).
This method measures the change in the fluorescent polarization of a fluorescently-labeled peptide due to the effect of human PLK1 kinase domain on it. PLK1 kinase assays were performed in low protein binding 384-well plates (Corning 3676). Test compounds were diluted in 100% DMSO to 5 mM stock concentration, the further dilutions were made in H2O or 100% DMSO to desirable concentrations.
Each reaction consisted of 30 nM enzyme PLK1 kinase domain, 400 nM 5TAMRA-RGSFNDTLDFD-NH2 (Genecust Europe), 16 μM ATP (=Kmapp, Sigma-Aldrich) and kinase buffer: 20 mM HEPES pH 7.5 (Sigma-Aldrich), 1 mM DTT (Sigma-Aldrich), 10 mM MgCl2 (Sigma-Aldrich), 0.01% Triton X-100 (Sigma-Aldrich).
For each reaction, 4 or 6 μl containing 5TAMRA-RGSFNDTLDFD-NH2, ATP and kinase buffer were combined with 2 μl diluted compound in H2O or 0.04 μl compound in 100% DMSO. The kinase reaction was started by the addition of 2 μl diluted enzyme. The reaction was allowed to run for 90 minutes at room temperature. The reaction was stopped by adding 15 μl IMAP beads (1:1200 beads in progressive (40% buffer A, 60% buffer B) 1× buffer). After an additional 60 minutes, fluorescent polarization (Ex: 550-10 nm, Em: 590-10 nm, Dich: 561 nm) was measured using Analyst GT multimode reader (Molecular Devices).

pIC50: −log10 of the molar value. Converted amounts (≈) assume the structure as drawn.

In the case of `Cc1noc(NS(=O)(=O)c2ccc(Nc3cc(-c4c(F)cccc4OC(C)C)ncn3)cc2)c1C` [Example 23, N-(3,4-Dimethyl-isoxazol-5-yl)-4-[6-(2-fluoro-6-isopropoxy-phenyl)-pyrimidin-4-ylamino]-benzenesulfonamide], in the test on M. tuberculosis H37Rv, the inhibition at 20 µM is 102% and the MIC was found to be 10.2 µM (≈ 5.1 µg/mL). Besides, at human PLK1 kinase domain, the pIC50 was 5.75 and the inhibition at 10 µM stood at 70.4%.

`Cc1noc(NS(=O)(=O)c2ccc(Nc3cc(-c4cc(Cl)ccc4OC(C)C)ncn3)cc2)c1C` [Example 24, 4-[6-(5-Chloro-2-isopropoxy-phenyl)-pyrimidin-4-ylamino]-N-(3,4-dimethyl-isoxazol-5-yl)-benzenesulfonamide]: in the test with M. tuberculosis H37Rv, the inhibition at 20 µM was -20.4%. Also, on human PLK1 kinase domain, the pIC50 is 5.43 and the inhibition at 10 µM amounted to 80.7%.

With `Cc1noc(NS(=O)(=O)c2ccc(Nc3cc(-c4ccc(C(F)(F)F)cc4)ncn3)cc2)c1C` [Example 25, N-(3,4-Dimethyl-isoxazol-5-yl)-4-[6-(4-trifluoromethyl-phenyl)-pyrimidin-4-ylamino]-benzenesulfonamide], the inhibition at 20 µM with M. tuberculosis H37Rv was -9.8%. Further, the inhibition at 10 µM against human PLK1 kinase domain worked out at 0%.

As for `Cc1noc(NS(=O)(=O)c2ccc(Nc3cc(-c4ccccc4C(N)=O)ncn3)cc2)c1C` [Example 26, 2-{6-[4-(3,4-Dimethyl-isoxazol-5-ylsulfamoyl)-phenylamino]-pyrimidin-4-yl}-benzamide], the inhibition at 20 µM with M. tuberculosis H37Rv is -34.2%. For the same compound, on human PLK1 kinase domain, the inhibition at 10 µM is 0%.

Consider `CC(=O)Nc1ccc(-c2cc(Nc3ccc(S(=O)(=O)Nc4onc(C)c4C)cc3)ncn2)cc1` [Example 27, N-(4-{6-[4-(3,4-Dimethyl-isoxazol-5-ylsulfamoyl)-phenylamino]-pyrimidin-4-yl}-phenyl)-acetamide], for which, in the test with M. tuberculosis H37Rv, the inhibition at 20 µM is -11.9%. For the same compound, on human PLK1 kinase domain, the pIC50 was 6.43 and the inhibition at 10 µM stood at 68.7%.

`COc1cc(Cl)ccc1-c1cc(Nc2ccc(S(=O)(=O)Nc3onc(C)c3C)cc2)ncn1` [Example 28, 4-[6-(4-Chloro-2-methoxy-phenyl)-pyrimidin-4-ylamino]-N-(3,4-dimethyl-isoxazol-5-yl)-benzenesulfonamide]: the inhibition at 20 µM in the test with M. tuberculosis H37Rv turned out to be 0.6%. Besides, at human PLK1 kinase domain, the pIC50 is 7.23 and the inhibition at 10 µM was 61.9%.

Consider `COc1ccc(COc2ccccc2-c2cc(Nc3ccc(S(=O)(=O)Nc4onc(C)c4C)cc3)ncn2)cc1` [Example 29, N-(3,4-Dimethyl-isoxazol-5-yl)-4-{6-[2-(4-methoxy-benzyloxy)-phenyl]-pyrimidin-4-ylamino}-benzenesulfonamide], for which the inhibition at 20 µM in the test with M. tuberculosis H37Rv is -14.2%. For the same compound, the inhibition at 10 µM on human PLK1 kinase domain is 36%.

For `COc1ccccc1-c1cc(Nc2ccc(S(=O)(=O)Nc3nnc(C)s3)cc2)ncn1` [Example 32, 4-[6-(2-Methoxy-phenyl)-pyrimidin-4-ylamino]-N-(5-methyl-[1,3,4]thiadiazol-2-yl)-benzenesulfonamide], in the test on M. tuberculosis H37Rv, the inhibition at 20 µM is 100% and the MIC was determined as 18.5 µM (≈ 8.41 µg/mL). In addition, on human PLK1 kinase domain, the negative-log IC50 (pIC50) is 6.04 and the inhibition at 10 µM came to 63.5%.

Turning to `COc1ccccc1-c1cc(Nc2ccc(S(=O)(=O)Nc3cc(C)on3)cc2)ncn1` [Example 33, 4-[6-(2-Methoxy-phenyl)-pyrimidin-4-ylamino]-N-(5-methyl-isoxazol-3-yl)-benzenesulfonamide], the inhibition at 20 µM with M. tuberculosis H37Rv was -30.6%. At human PLK1 kinase domain, the inhibition at 10 µM came to 57.8%.

For the compound `Cc1noc(NS(=O)(=O)c2ccc(Nc3cc(-c4cccc(C#N)c4)ncn3)cc2)c1C` [Example 34, 4-[6-(3-Cyano-phenyl)-pyrimidin-4-ylamino]-N-(3,4-dimethyl-isoxazol-5-yl)-benzenesulfonamide], the inhibition at 20 µM with M. tuberculosis H37Rv was -4.3%. For the same compound, at human PLK1 kinase domain, the inhibition at 10 µM worked out at 58.5%.

Consider `COc1cccc(-c2cc(Nc3ccc(S(=O)(=O)Nc4onc(C)c4C)cc3)ncn2)c1` [Example 35, N-(3,4-Dimethyl-isoxazol-5-yl)-4-[6-(3-methoxy-phenyl)-pyrimidin-4-ylamino]-benzenesulfonamide], for which the inhibition at 20 µM with M. tuberculosis H37Rv is -8.1%. At human PLK1 kinase domain, the negative logarithm of the IC50 (pIC50) was 5.60 and the inhibition at 10 µM amounted to 77.1%.
